Patent publication US20060099225A1 (priority 2004, published 2006)

Experiments:
Ebola virus (EBOV) = assay type: cell-based
[1] = system: 293T cells transfected with Ebola GP; assay type: cell-based, human

With nystatin the “general cytotoxic effect, trypan blue exclusion” value (Vero E6 cells) was “cells were shown to be viable”.

With `CCCCC[C@@H](O)[C@H]1C(=O)O[C@H](C)[C@@H](O)/C=C/C=C/C=C/C=C/C=C(\C)[C@@H](O)C[C@H](O)C[C@H](O)C[C@H](O)C[C@H](O)C[C@H](O)C[C@@H]1O` [filipin] the “general cytotoxic effect, trypan blue exclusion” value (Vero E6 cells) was “cells were shown to be viable”, the “EBOV infection, viral titer 48 hour post infection” value (Ebola virus (EBOV)) was “significant inhibition of EBOV infection” and the “virus production when cells recover in medium 4 h after treatment before infection” value (Ebola virus (EBOV)) was “could produce large amounts of virus”.

With methyl-β-cyclodextrin the “association of Ebola GP with rafts (detergent insoluble fraction) after pre-treatment” value [1] was “almost complete removal of Ebola GP from rafts”.
